Test results as given in PubChem BioAssay (NCI).
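Five concentrations, 48 hours, 96-well plates. Abbreviation: GI50, concentration required for 50% inhibition of growth. TGI is the concentration that stops growth completely.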

How the values were obtained:
Assay in all cases: NCI-60 cell line screen, 48 h
[1] = system: A498 renal
[2] = system: A549 NSCLC
[3] = system: CAKI-1 renal
[4] = system: CCRF-CEM leukemia
[5] = system: DU-145 prostate
[6] = system: EKVX NSCLC
[7] = system: HOP-62 NSCLC
[8] = system: HOP-92 NSCLC
[9] = system: HS 578T breast
[10] = system: K-562 leukemia
[11] = system: LOX IMVI melanoma
[12] = system: MDA-MB-231 breast
[13] = system: MDA-MB-435
[14] = system: NCI-H226 lung
[15] = system: NCI/ADR-RES ovarian
[16] = system: OVCAR-4 ovarian
[17] = system: OVCAR-5 ovarian
[18] = system: RPMI-8226 leukemia
[19] = system: SF-268 CNS
[20] = system: SK-MEL-2 melanoma
[21] = system: SK-OV-3 ovarian
[22] = system: SNB-75 CNS
[23] = system: SR leukemia
[24] = system: T-47D breast
[25] = system: TK-10 renal
[26] = system: UACC-257 melanoma

COc1cc(/C=C/C(=O)c2ccc(C)cc2)ccc1Oc1nc(NCCO)nc(N2CCOCC2)n1
GI50 [1]: > 100 µM
TGI [1]: > 100 µM
GI50 [2]: 9.47 µM
TGI [2]: > 100 µM
GI50 [3]: 5.02 µM
TGI [3]: > 100 µM
GI50 [4]: 2.71 µM
TGI [4]: > 100 µM
GI50 [5]: 3.79 µM
TGI [5]: > 100 µM
GI50 [6]: 3.9 µM
TGI [6]: > 100 µM
GI50 [7]: 16.6 µM
TGI [7]: > 100 µM
GI50 [8]: 8.4 µM
TGI [8]: > 100 µM
GI50 [9]: 4.6 µM
TGI [9]: > 100 µM
GI50 [10]: 1.53 µM
TGI [10]: > 100 µM
GI50 [11]: 0.43 µM
TGI [11]: 1.5 µM
GI50 [12]: 2.98 µM
TGI [12]: > 100 µM
GI50 [13]: 3.31 µM
TGI [13]: > 100 µM
GI50 [14]: 6.28 µM
TGI [14]: > 100 µM
GI50 [15]: 2.08 µM
TGI [15]: 4.57 µM
GI50 [16]: 3.92 µM
TGI [16]: > 100 µM
GI50 [17]: 3.22 µM
TGI [17]: > 100 µM
GI50 [18]: 1.72 µM
TGI [18]: 6.02 µM
GI50 [19]: 2.9 µM
TGI [19]: > 100 µM
GI50 [20]: 8.17 µM
TGI [20]: > 100 µM
GI50 [21]: 23 µM
TGI [21]: > 100 µM
GI50 [22]: > 100 µM
TGI [22]: > 100 µM
GI50 [23]: 1.06 µM
TGI [23]: 7.16 µM
GI50 [24]: 2.98 µM
TGI [24]: > 100 µM
GI50 [25]: > 100 µM
TGI [25]: > 100 µM
GI50 [26]: 3.98 µM
TGI [26]: > 100 µM
